According to ChEMBL document CHEMBL1132553, “Design, synthesis, and biological evaluation of matrix metalloproteinase inhibitors derived from a modified proline scaffold” (J Med Chem, 1999):

How the values were obtained:
[1] = target: T1, Matrilysin (Homo sapiens, UniProt P09237); experiment: In vitro inhibition of matrilysin (Matrix metalloprotease-7, MMP-7)
T1 sequence (P09237 whole entry): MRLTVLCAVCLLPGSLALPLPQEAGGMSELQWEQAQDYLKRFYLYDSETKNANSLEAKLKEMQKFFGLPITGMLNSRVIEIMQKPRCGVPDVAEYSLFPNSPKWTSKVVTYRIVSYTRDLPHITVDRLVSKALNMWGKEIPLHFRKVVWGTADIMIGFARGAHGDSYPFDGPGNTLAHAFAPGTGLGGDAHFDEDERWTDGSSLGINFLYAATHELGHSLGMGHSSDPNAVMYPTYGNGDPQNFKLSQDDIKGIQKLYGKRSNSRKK

[2] = target: T2, Interstitial collagenase (Homo sapiens, UniProt P03956); experiment: In vitro inhibition of human recombinant collagenase-1 (Matrix metalloprotease-1, MMP-1)
T2 sequence (P03956 whole entry): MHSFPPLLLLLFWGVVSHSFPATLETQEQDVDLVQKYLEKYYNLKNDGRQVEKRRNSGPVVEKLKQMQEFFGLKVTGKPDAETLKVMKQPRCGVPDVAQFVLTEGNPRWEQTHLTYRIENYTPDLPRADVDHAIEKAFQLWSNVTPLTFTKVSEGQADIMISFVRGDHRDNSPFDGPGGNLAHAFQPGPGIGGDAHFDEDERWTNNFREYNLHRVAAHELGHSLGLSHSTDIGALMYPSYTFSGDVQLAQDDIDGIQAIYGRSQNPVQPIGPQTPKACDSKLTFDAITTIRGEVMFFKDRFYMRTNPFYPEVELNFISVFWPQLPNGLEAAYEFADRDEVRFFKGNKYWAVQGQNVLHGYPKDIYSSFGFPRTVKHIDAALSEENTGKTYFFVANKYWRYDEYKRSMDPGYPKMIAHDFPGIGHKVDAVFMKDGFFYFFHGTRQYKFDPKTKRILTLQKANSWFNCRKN

[3] = species on record: Rattus norvegicus; experiment: In vitro percent permeability into rat ileum; Range is 28-36; type: ADME; conditions: in vivo
[4] = target: Collagenase 3 (Homo sapiens, UniProt P45452); experiment: In vitro inhibition of human recombinant collagenase-3 (Matrix metalloprotease-13)
[5] = target: Stromelysin-1 (Homo sapiens, UniProt P08254); experiment: In vitro inhibition activity of human recombinant stromelysin (Matrix metalloprotease-3)
Sequence of Stromelysin-1 (P08254 whole entry): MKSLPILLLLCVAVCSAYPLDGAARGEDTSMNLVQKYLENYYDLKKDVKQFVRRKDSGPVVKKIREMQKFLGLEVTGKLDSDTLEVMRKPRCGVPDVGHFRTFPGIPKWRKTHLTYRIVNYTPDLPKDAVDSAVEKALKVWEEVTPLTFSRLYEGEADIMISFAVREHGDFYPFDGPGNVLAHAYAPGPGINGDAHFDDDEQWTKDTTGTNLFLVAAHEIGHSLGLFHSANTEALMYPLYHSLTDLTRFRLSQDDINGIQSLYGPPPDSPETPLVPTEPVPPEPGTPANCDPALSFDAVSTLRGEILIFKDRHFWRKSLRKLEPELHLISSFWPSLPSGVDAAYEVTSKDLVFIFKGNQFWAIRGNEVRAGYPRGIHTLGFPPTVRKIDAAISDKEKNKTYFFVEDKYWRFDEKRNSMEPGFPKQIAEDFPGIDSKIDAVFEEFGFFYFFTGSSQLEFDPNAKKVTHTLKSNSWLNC

[6] = target: 72 kDa type IV collagenase (Homo sapiens, UniProt P08253)
Sequence of 72 kDa type IV collagenase (P08253 whole entry): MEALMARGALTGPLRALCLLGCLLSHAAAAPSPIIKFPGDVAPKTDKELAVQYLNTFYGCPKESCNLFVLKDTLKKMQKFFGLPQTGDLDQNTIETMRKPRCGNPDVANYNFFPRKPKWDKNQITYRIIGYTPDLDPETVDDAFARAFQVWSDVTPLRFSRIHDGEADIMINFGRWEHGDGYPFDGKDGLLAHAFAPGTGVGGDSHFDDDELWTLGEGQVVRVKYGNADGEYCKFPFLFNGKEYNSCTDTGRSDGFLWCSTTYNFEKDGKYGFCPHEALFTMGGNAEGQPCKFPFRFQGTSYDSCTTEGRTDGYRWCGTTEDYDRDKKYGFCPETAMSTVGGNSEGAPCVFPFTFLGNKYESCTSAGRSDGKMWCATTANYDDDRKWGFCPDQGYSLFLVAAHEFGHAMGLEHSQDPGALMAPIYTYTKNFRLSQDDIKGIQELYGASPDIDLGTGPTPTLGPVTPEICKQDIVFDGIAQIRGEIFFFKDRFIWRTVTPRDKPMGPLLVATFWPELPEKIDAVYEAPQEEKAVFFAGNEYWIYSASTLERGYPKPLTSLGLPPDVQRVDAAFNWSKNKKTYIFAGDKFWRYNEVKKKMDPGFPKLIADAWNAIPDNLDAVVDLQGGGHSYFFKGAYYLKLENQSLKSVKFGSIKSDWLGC
Description: In vitro inhibitory activity against gelatinase-A (matrix metalloprotease-2).

[7] = species on record: Rattus norvegicus; experiment: In vitro percent permeability into rat ileum; nd indicates not detected; type: ADME; conditions: in vivo
[8] = species on record: Rattus norvegicus; experiment: In vitro percent permeability into rat ileum; Range is 2-5; type: ADME; conditions: in vivo
[9] = species on record: Rattus norvegicus; experiment: In vitro percent permeability into rat ileum; Range is 15-18; type: ADME; conditions: in vivo
[10] = species on record: Rattus norvegicus; experiment: In vitro percent permeability into rat ileum; type: ADME; conditions: in vivo
[11] = species on record: Rattus norvegicus; experiment: In vitro percent permeability into rat ileum; Range is 50-68; type: ADME; conditions: in vivo
[12] = species on record: Rattus norvegicus; experiment: In vitro percent permeability into rat ileum; Range is 29-35; type: ADME; conditions: in vivo
[13] = species on record: Rattus norvegicus; experiment: In vitro percent permeability into rat ileum; nt indicates not detected; type: ADME; conditions: in vivo
[14] = species on record: Rattus norvegicus; experiment: In vitro percent permeability into rat ileum; Range is 10-19; type: ADME; conditions: in vivo
[15] = species on record: Rattus norvegicus; experiment: In vitro percent permeability into rat ileum; Range is 46-66; type: ADME; conditions: in vivo
[16] = species on record: Rattus norvegicus; experiment: In vitro percent permeability into rat ileum; Range is 12-15; type: ADME; conditions: in vivo
[17] = species on record: Rattus norvegicus; experiment: In vitro percent permeability into rat ileum; Range is 13-19; type: ADME; conditions: in vivo
[18] = species on record: Rattus norvegicus; experiment: In vitro percent permeability into rat ileum; insol indicates not soluble in aqueous buffer; type: ADME
[19] = In vitro percent permeability into rat ileum; Range is 23-42; type: ADME, tissue-based
[20] = species on record: Rattus norvegicus; experiment: In vitro percent permeability into rat ileum; Range is 14-17; type: ADME; conditions: in vivo
[21] = species on record: Rattus norvegicus; experiment: In vitro percent permeability into rat ileum; Range is 10-17; type: ADME; conditions: in vivo

| Structure (SMILES) | IC50 [1] | IC50 [2] | IC50 [4] | IC50 [5] | IC50 [6] | further results |
| --- | --- | --- | --- | --- | --- | --- |
| CCCCOc1ccc(S(=O)(=O)N2C/C(=N\OC)C[C@@H]2C(=O)NO)cc1 | 89 nM | 26 nM | 0.3 nM | 1 nM | < 1 nM | Absorption [3]: 36% |
| O=C(NO)[C@H]1C/C(=N/Oc2ccccc2)CN1S(=O)(=O)c1ccc(Oc2ccncc2)cc1 | 785 nM | 32 nM | 0.4 nM | 5 nM |  | Absorption [7]: None detected |
| CCCCOc1ccc(S(=O)(=O)N2C/C(=N\O)C[C@@H]2C(=O)NO)cc1 | 307 nM | 119 nM | 0.3 nM | 5 nM | 0.2 nM | Absorption [8]: 5% |
| CO/N=C1/C[C@H](C(=O)NO)N(S(=O)(=O)c2ccc(Oc3ccccc3)cc2)C1 | 60 nM | 3 nM | < 0.4 nM | 2 nM | < 0.4 nM | Absorption [9]: 18% |
| CCCCOc1ccc(S(=O)(=O)N2C/C(=N\N3CCOCC3)C[C@@H]2C(=O)NO)cc1 | 196 nM | 293 nM | < 1 nM | 2 nM |  | Absorption [10]: 1% |
| CO/N=C1/C[C@H](C(=O)NO)N(S(=O)(=O)c2ccc(Oc3ccncc3)cc2)C1 | 922 nM |  | < 0.2 nM | 5 nM | 0.3 nM | Absorption [11]: 68% |
| COc1ccc(S(=O)(=O)N2C/C(=N\O)C[C@@H]2C(=O)NO)cc1 |  | 17 nM | 0.2 nM | 5 nM | 0.2 nM | Absorption [12]: 35% |
| C=C1C[C@H](C(=O)NO)N(S(=O)(=O)c2ccc(OCCC)cc2)C1 | 2550 nM | 155 nM | 1 nM | 16 nM | 2 nM |  |
| C=C1C[C@H](C(=O)NO)N(S(=O)(=O)c2ccc(OCCCC)cc2)C1 | 1080 nM | 329 nM | 0.7 nM | 15 nM | 0.8 nM |  |
| CCCCOc1ccc(S(=O)(=O)N2C/C(=N\OC(C)(C)C)C[C@@H]2C(=O)NO)cc1 | 294 nM | 74 nM | 0.4 nM | 11 nM | 0.5 nM | Absorption [13]: None detected |
| CONC1C[C@H](C(=O)NO)N(S(=O)(=O)c2ccc(Oc3ccccc3)cc2)C1 (stereo partly drawn) | 1790 nM | 86 nM | < 0.4 nM | 6 nM | < 0.4 nM |  |
| CCCCOc1ccc(S(=O)(=O)N2C/C(=N\N3CCNCC3)C[C@@H]2C(=O)NO)cc1 | 343 nM | 184 nM | < 1 nM | 3 nM |  | Absorption [14]: 19% |
| C=C1C[C@H](C(=O)NO)N(S(=O)(=O)c2ccc(OC)cc2)C1 | 12300 nM | 90 nM | 4 nM |  |  | Absorption [15]: 66% |
| CCCOc1ccc(S(=O)(=O)N2C/C(=N\OC)C[C@@H]2C(=O)NO)cc1 | 381 nM | 13 nM | < 1 nM | 2 nM | < 0.4 nM |  |
| CONC1C[C@H](C(=O)NO)N(S(=O)(=O)c2ccc(OC)cc2)C1 (stereo partly drawn) | 3390 nM | 212 nM | 3 nM | 19 nM | 5 nM | Absorption [16]: 15% |
| COc1ccc(S(=O)(=O)N2C/C(=N\OC(C)(C)C)C[C@@H]2C(=O)NO)cc1 | 263 nM | 20 nM | < 0.5 nM | 9 nM | 0.7 nM | Absorption [17]: 19% |
| CC(C)(C)O/N=C1/C[C@H](C(=O)NO)N(S(=O)(=O)c2ccc(Oc3ccc(F)cc3)cc2)C1 | 1030 nM | 24 nM | 0.2 nM | < 1 nM | < 0.4 nM | Absorption [18]: Insoluble |
| CCOc1ccc(S(=O)(=O)N2C/C(=N\OC)C[C@@H]2C(=O)NO)cc1 | 1060 nM | 22 nM | 0.7 nM | 16 nM | 0.3 nM | Absorption [19]: 42% |
| COc1ccc(S(=O)(=O)N2CC(NOC(C)(C)C)C[C@@H]2C(=O)NO)cc1 (stereo partly drawn) | 5230 nM | 255 nM | 3 nM | 20 nM | 4 nM |  |
| C=C1C[C@H](C(=O)NO)N(S(=O)(=O)c2ccc(Oc3ccccc3)cc2)C1 | 53 nM | 15 nM | < 0.4 nM | 14 nM | 0.4 nM |  |
| COCCOc1ccc(S(=O)(=O)N2C/C(=N\OC)C[C@@H]2C(=O)NO)cc1 | 612 nM | 109 nM | < 0.4 nM | 15 nM | 0.5 nM |  |
| CC(C)(C)O/N=C1/C[C@H](C(=O)NO)N(S(=O)(=O)c2ccc(Oc3ccncc3)cc2)C1 | 785 nM | 26 nM | < 0.4 nM | 5 nM | < 0.4 nM |  |
| COCCOc1ccc(S(=O)(=O)N2CC(NOC)C[C@@H]2C(=O)NO)cc1 (stereo partly drawn) | 6720 nM |  | 8 nM | 222 nM | 11 nM |  |
| CCCCOc1ccc(S(=O)(=O)N2C/C(=N\OCC(C)C)C[C@@H]2C(=O)NO)cc1 | 420 nM | 75 nM | < 0.1 nM | 12 nM | < 0.4 nM |  |
| CCCCOc1ccc(S(=O)(=O)N2CC(NOC)C[C@@H]2C(=O)NO)cc1 (stereo partly drawn) | 2080 nM | 790 nM | 2 nM | 21 nM | 1 nM | Absorption [20]: 17% |
| C=C1C[C@H](C(=O)NO)N(S(=O)(=O)c2ccc(OCCOC)cc2)C1 | > 9990 nM | 1550 nM | 11 nM | 69 nM | 9 nM |  |
| CO/N=C1/C[C@H](C(=O)NO)N(S(=O)(=O)c2ccc(Oc3ccc(F)cc3)cc2)C1 | < 24 nM | 3 nM | 0.8 nM | < 1 nM | < 0.4 nM |  |
| CCCCOc1ccc(S(=O)(=O)N2C/C(=N\OCc3ccccc3)C[C@@H]2C(=O)NO)cc1 | 490 nM | 127 nM | 0.1 nM | 17 nM | < 0.4 nM |  |
| CCCCOc1ccc(S(=O)(=O)N2C/C(=N\OCC)C[C@@H]2C(=O)NO)cc1 | 39 nM | 39 nM | 0.5 nM | 2 nM | < 0.4 nM | Absorption [21]: 17% |
